From patent publication US20100331305A1, “OXO-HETEROCYCLE FUSED PYRIMIDINE COMPOUNDS, COMPOSITIONS AND METHODS OF USE” (Genentech, Inc., priority 2009, published 2010)

How the values were obtained:
[1] = tested on: PC3 cells; assay: In vitro cell proliferation assay; format: cell-based, human; details: Homo sapiens, PC-3, with PC3 cells; values tied to compounds by order of Table 1
In short: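 PC3 (or MDAMB361.1) cells, ~10^3/well, settled overnight, then exposed to compound for 3 days; viability read by CellTiter-Glo luminescence (RLU). Alternatively, 4-day compound exposure followed by Alamar Blue for 6 h, fluorescence 544/590 nm; EC50 from sigmoidal dose-response fit.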

[2] = tested on: AKT serine-473 phosphorylation in PC-3 cells; assay: In vitro phospho-AKT serine 473 cellular assay; format: cell-based; details: Homo sapiens; PC-3 cells stimulated with EGF; first nine specific compounds; read-out: EC50 activity level, inhibition of AKT serine-473 phosphorylation
Description: b. In Vitro Phospho-AKT Serine 473 Cellular Assay
The assay measures a test compound's inhibition of AKT serine-473 phosphorylation in human prostate adenocarcinoma derived PC-3 (ATCC CRL-1435) cells that have been stimulated with epidermal growth factor (EGF).
The PC-3 cell line is maintained in RPMI1640 media supplemented with 10% FBS, 2 mM Glutamine, and 10 mM HEPES pH 7.4 at 37° C. in a 5% CO2 humidified incubator.
Cells are seeded in 384-well plates at 7,000 cells/well in 50 μl growth media. After 24 hours, growth media is removed and replaced with RPMI1640 containing no FBS. Cells are treated with 10 concentrations of test compounds or DMSO alone for controls (final DMSO concentration 0.5%) and incubated at 37° C. for 30 minutes. Cells are then stimulated for 10 minutes with 100 ng/ml EGF (final concentration). One column of controls is not stimulated with EGF to observe the signal ratio between stimulated and non-stimulated cells. After 10 minutes, compounds and stimulation media are removed and replaced with 25 μl lysis buffer containing protease inhibitors and phosphatase inhibitors. This buffer contains detergent to bring about cellular disruption. […] Following the transfer of lysate to the MSD plate, AKT in the lysate is captured on the coated antibody by incubation on a shaker at 4° C. for 16 hours. Following the capture step the plate is washed and then incubated for two hours with an antibody to S473 phosphorylated AKT which is conjugated with a Sulfo-Tag. This tag gives a signal when in proximity to the electrode on the base of the MSD plate. Binding the tagged antibody to the captured protein allow detection on a MSD reader.
EC50 values are calculated using MDL Assay Explorer 3.0.1.8 fitting a sigmoidal curve with a variable slope.

[3] = molecular target: mTOR enzyme (mTOR(1360-2549)+GBL) (Homo sapiens, UniProt P42345); assay: In vitro mTOR kinase assay (TR-FRET); format: biochemical; details: 0.25 nM mTOR+GBL, 8 uM ATP; values tied to compounds by order of Table 1; 'x or y' = two alternative values for separated diastereomers of unassigned stereochemistry; read-out: activity level (Ki) in the mTOR kinase assay
Chain of mTOR enzyme (mTOR(1360-2549)+GBL) (P42345 1360-2549, species assumed): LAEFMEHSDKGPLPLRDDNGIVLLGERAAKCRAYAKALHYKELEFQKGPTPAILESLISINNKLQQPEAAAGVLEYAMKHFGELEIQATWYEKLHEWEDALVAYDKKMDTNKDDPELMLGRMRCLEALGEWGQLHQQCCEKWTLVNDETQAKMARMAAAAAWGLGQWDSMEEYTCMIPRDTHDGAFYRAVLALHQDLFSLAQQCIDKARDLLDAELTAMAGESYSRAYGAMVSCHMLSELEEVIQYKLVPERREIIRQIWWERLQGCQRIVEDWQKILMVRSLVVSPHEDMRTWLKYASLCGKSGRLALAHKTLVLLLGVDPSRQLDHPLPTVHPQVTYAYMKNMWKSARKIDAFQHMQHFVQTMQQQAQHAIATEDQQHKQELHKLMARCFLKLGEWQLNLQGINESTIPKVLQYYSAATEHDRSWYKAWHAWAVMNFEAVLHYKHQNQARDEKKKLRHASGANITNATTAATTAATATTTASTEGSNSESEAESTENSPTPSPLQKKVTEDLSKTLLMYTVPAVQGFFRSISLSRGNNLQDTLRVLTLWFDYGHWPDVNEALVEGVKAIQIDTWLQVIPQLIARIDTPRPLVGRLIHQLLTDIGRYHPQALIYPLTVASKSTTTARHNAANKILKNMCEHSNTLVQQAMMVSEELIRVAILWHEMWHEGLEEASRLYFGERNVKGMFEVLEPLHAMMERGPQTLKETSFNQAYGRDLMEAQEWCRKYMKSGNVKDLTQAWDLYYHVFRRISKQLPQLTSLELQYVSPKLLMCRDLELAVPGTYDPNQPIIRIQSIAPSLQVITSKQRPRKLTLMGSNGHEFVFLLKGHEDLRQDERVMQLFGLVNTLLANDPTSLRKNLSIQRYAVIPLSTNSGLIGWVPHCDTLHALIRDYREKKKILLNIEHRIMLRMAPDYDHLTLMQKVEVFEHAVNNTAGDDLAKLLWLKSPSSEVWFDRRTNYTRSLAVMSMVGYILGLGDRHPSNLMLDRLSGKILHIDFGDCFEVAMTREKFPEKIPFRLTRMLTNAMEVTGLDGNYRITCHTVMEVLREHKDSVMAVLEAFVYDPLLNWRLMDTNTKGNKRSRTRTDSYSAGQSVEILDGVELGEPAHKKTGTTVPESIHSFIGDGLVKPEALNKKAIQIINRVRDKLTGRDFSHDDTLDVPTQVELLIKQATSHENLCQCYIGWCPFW
Chain of mTOR enzyme (mTOR(1360-2549)+GBL) (Q9BVC4 whole entry partner, species assumed): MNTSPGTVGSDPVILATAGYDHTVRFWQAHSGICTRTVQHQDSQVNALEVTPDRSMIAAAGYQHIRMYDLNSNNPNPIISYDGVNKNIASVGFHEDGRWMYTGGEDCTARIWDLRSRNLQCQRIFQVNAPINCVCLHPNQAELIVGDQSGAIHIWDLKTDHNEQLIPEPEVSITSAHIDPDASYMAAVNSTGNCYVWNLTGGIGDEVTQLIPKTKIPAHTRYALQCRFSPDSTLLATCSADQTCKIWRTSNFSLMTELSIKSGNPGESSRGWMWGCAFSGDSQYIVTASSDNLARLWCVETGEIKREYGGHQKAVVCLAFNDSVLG
In short: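 Compounds were tested in 10-point dose curves from 10 uM top final concentration. The reaction was stopped with 2 nM Tb-anti-p4E-BP1 (T37/T46) antibody plus 10 mM EDTA for 30 minutes, and phospho-4E-BP1 was detected by TR-FRET. Ki apparent was fitted with the Morrison ATP-competitive tight-binding equation.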

| SMILES | EC50 [1] [nM] | EC50 [2] [nM] | Ki [3] [nM] |
| --- | --- | --- | --- |
| CCNC(=O)Nc1ccc(-c2nc3c(c(N4CCOCC4)n2)CCCO3)cc1 [Example 15, 1-ethyl-3-(4-(4-morpholino-6,7-dihydro-5H-pyrano[2,3-d]pyrimidin-2-yl)phenyl)urea] | 194 | 85 |  |
| CCNC(=O)Nc1ccc(-c2nc3c(c(N4CCOC[C@@H]4CC)n2)COCC3)cc1 [Example 19, (S)-1-ethyl-3-(4-(4-(3-ethylmorpholino)-7,8-dihydro-5H-pyrano[4,3-d]pyrimidin-2-yl)phenyl)urea] | 88 | 6 | 1 |
| CCNC(=O)Nc1ccc(-c2nc3c(c(N4CCOCC4)n2)COCC3)cc1 [Example 18, 1-ethyl-3-(4-(4-morpholino-7,8-dihydro-5H-pyrano[4,3-d]pyrimidin-2-yl)phenyl)urea] |  | 237 |  |
| CCNC(=O)Nc1ccc(-c2nc3c(c(N4CCOC[C@@H]4C)n2)CCCO3)cc1 [Example 16, (S)-1-ethyl-3-(4-(4-(3-methylmorpholino)-6,7-dihydro-5H-pyrano[2,3-d]pyrimidin-2-yl)phenyl)urea] | 231 | 10 | 2 |
| CCNC(=O)Nc1ccc(-c2nc3c(c(N4CCOC[C@@H]4C)n2)COCC3)cc1 [Example 17, (S)-1-ethyl-3-(4-(4-(3-methylmorpholino)-7,8-dihydro-5H-pyrano[4,3-d]pyrimidin-2-yl)phenyl)urea] | 175 | 22 | 4 |
| C[C@H]1COCCN1c1nc(-c2ccc(NC(=O)Nc3ccon3)cc2)nc2c1COCC2 [Example 20, (S)-1-(isoxazol-3-yl)-3-(4-(4-(3-methylmorpholino)-7,8-dihydro-5H-pyrano[4,3-d]pyrimidin-2-yl)phenyl)urea] | 94 | 15 | 2 |
| C[C@H]1COCCN1c1nc(-c2ccc(NC(=O)Nc3ccn(C)n3)cc2)nc2c1COCC2 [Example 21, (S)-1-(1-methyl-1H-pyrazol-3-yl)-3-(4-(4-(3-methylmorpholino)-7,8-dihydro-5H-pyrano[4,3-d]pyrimidin-2-yl)phenyl)urea] | 189 | 108 | 3 |
| C[C@H]1COCCN1c1nc(-c2ccc(NC(=O)Nc3cnn(C)c3)cc2)nc2c1COCC2 [Example 22, (S)-1-(1-methyl-1H-pyrazol-4-yl)-3-(4-(4-(3-methylmorpholino)-7,8-dihydro-5H-pyrano[4,3-d]pyrimidin-2-yl)phenyl)urea] | 59 | 42 | 4 |
| C[C@H]1COCCN1c1nc(-c2ccc(NC(=O)NCC(F)(F)F)cc2)nc2c1COCC2 [Example 23, (S)-1-(4-(4-(3-methylmorpholino)-7,8-dihydro-5H-pyrano[4,3-d]pyrimidin-2-yl)phenyl)-3-(2,2,2-trifluoroethyl)urea] | 993 | 49 | 16 |
| CCNC(=O)Nc1ccc(-c2nc(N3CCOC[C@@H]3C)c3c(n2)[C@@](C)(CCn2ccnc2C)OC3)cc1 [Example 81 et (R), 1-ethyl-3-(4-((R)-7-methyl-7-(2-(2-methyl-1H-imidazol-1-yl)ethyl)-4-((S)-3-methylmorpholino)-5,7-dihydrofuro[3,4-d]pyrimidin-2-yl)phenyl)urea] | 274 |  | 67 |
